Test results taken from US20250339569A1, “CARBONIC ANHYDRASE IX LIGANDS” (priority 2021, published 2025).

Tests used:
[1] = target: T1, human CAIX (Homo sapiens, UniProt Q16790); assay: In vitro SPR binding assay of DPI-4452, natLu-DPI-4452 and natGa-DPI-4452 to CAIX (anti-human Fc capture); set-up: purchased SinoBliological (Sino Biological) 10107-H02H
Procedure: Surface Plasmon Resonance (SPR) studies were performed on a Biacore™ T200 using a ligand capture approach. Basically, anti-human Fc antibodies were immobilized on the surface of a sensor chip and CAIX was captured on the functionalized surface via its Fc Tag.
Then, each compound was injected at increasing concentrations on the captured CAIX in order to measure the in real-time interaction of the compound to its target (i.e. the captured CAIX). The in real-time monitoring of the association and dissociation of the interaction gives access to the interaction kinetics parameters (i.e. the association and dissociation rate constants and the resulting affinity constants).
• A series S CM5 sensor chip was used (Cytiva). • All reagents used for the immobilization procedure were part of the Amine Coupling Kit, type 2 and/or the Human Antibody Capture Kit (Cytiva). The running buffer (HBS-EP+) was prepared by 10-fold dilution of the stock HBS-EP+ 10× solution (Cytiva). • Anti-human Fc antibodies stock solution (0.5 mg/mL in 0.15 M NaCl) was diluted in 10 mM sodium acetate pH 5.0 to a final concentration of 25 μg/mL directly into a plastic vial 7 mm. • Amine coupling reagents were transferred into plastic vials 7 mm as follow: • 95 μL of 0.4 M 1-ethyl-3-(3-dimethylaminopropyl)carbodiimide (EDC). • 95 μL of 0.1 M N-hydroxysuccinimide (NHS). • An empty plastic vial 7 mm was added in the Biacore™ sample rack for mixing. • 150 μL of 1 M ethamolamine-HCl, pH 8.5. • Plastic vials were closed with rubber caps and the sample rack was inserted into the Biacore™ T200 sample compartment. • The Biacore™ T200 Amine Wizard was used to immobilize the anti-Human Fc antibodies on the four flow-cells of a series S CM5 sensor chip simultaneously with defined contact time of 360 seconds and flow-rate of 5 μL/min. • The immobilization procedure was performed at 25° C., following Cytiva's recommendations, as described in Table 23.
This procedure allowed to reach immobilization levels between 6000 and 9000 RU of anti-human Fc antibodies on the sensor chip surface.
• CAIX (Sino Biological, 10107-H02H) stock solution was prepared from lyophilized material reconstituted with deionized water to a concentration of 0.25 μg/mL (3.69 μM), following the supplier recommendations. • CAIX working solution was obtained after dilution of CAIX stock solution with PBS-P+1×, 0.1% DMSO to a final concentration of 200 nM directly in a Biacore™ plastic vial.
• For each measurement, the raw surface plasmon resonance response (RU) was plotted against time (s) as a sensorgram using the Biacore™ T200 Control Software. • Raw data were corrected by double referencing with subtraction of the signal of both the reference flow-cell and the blank cycle. • The association and dissociation rate constants (ka and kd, respectively), as well as the dissociation constant KD and dissociation half-life t1/2 were determined from the corrected sensorgrams by fitting the data to a 1:1 Langmuir binding model with the Biacore™ T200 evaluation software.

[2] = target: T1, human CAIX; assay: Radioligand saturation binding and equilibration on CHO-huCAIX; set-up: host or cells: CHO-VGT / CHO cells
Procedure: After attainment of equilibrium, the cells were harvested, and the bound fraction of the compounds was measured. The resulting saturation binding data were analyzed using Graph Pad Prism 8.3.
CHO cells transfected with human, dog, and mouse CAIX (CHO-huCA9 T04J-1/20 K1, CHO-dogCA9 T05J-9/20 K4, CHO-murCA9 T05J-3/20 K4) were obtained from InSCREENex (Germany).
A molar excess of 3BP-3565 was used as a blocking peptide to assess non-specific binding in autoradiographic studies. 3BP-3565 binds with a similar affinity to CAIX and blocks binding sites of test compounds. For the blocking solution, a 10 mM stock solution of 3BP-3565 was prepared by dissolution in DMSO.
CHO cells were maintained in Ham's medium supplemented with 10% fetal bovine serum, 2 mM L-glutamine, 100 U/mL Penicillin and 0.1 mg/mL streptomycin under standard cell culture conditions. The cells were grown in uncoated cell culture flasks (150 cm^2, Biochrom) to subconfluence and then split 1:2-1:3. Approximately 24 hours before the assay, cells were detached by incubation with Accutase and carefully tapping the flasks. Detached cells were resuspended in medium and collected by centrifugation (300 g, 5 min, RT). Cell pellets were resuspended in cell culture medium and counted using a particle counter (CASY Model TT, Scharfe Systems, Germany). Cell concentrations were adjusted to 3×10^5 mL^−1, and 1.000 μL per well of the suspension were dispensed into poly-D-lysine-coated flat-clear-bottom 24 well plates.
Compound radiolabeling was performed as follows. […] Then, 25 mg/mL methionine in 1 M sodium acetate buffer pH 5 was added at a final concentration of 0.1 M sodium acetate. Subsequently, the mixture was heated to 80° C. for 25 min, followed by cooling for 5 minutes. Finally, 20 μL of 200 mg/mL ascorbic acid solution, 2.5 μL of 5 mg/mL DTPA and 2.5 μL of 5% TWEEN-20 per 100 μL reaction mixture were added, resulting in the concentrated study solution. For quality control, an aliquot of the labeling solution was diluted 1:40 with 0.1% TWEEN-20 in 0.1 M sodium acetate buffer pH 5. Five microliters of the diluted labeling solution were injected onto a Poroshell SB-C18 2.1×50 mm, 2.7 μm column. HPLC analysis was performed as follows: Gradient A: H2O, 0.1% TFA, Gradient B: Acetonitrile (MeCN), gradient from 5% B to 70% B within 15 min, flow rate of 0.5 mL/min; detector: NaI, DAD 215 nm. The peak eluting with the dead volume represents free radionuclide, the peak eluting with the ligand-specific retention time as determined with a non-labeled sample represents the radiolabeled compound.
The assessment of the time needed until attainment of equilibration on CHO-huCAIX and CHO-dgCAIX was performed as follows. The 10 mM 3BP-3565 stock solution was diluted with assay medium (Ham's medium without additives) to prepare an 8-μM blocking working solution. The radiolabeling mixtures were diluted with assay medium to prepare 160 nM radioligand working solutions. Subsequently, 1.6 and 3.2 nM radioligand dilutions were prepared by diluting the radioligand working solutions 1:100 and 1:50, respectively, with assay medium. Approximately 24 hours after re-seeding (3×10^5 mL^−1 cells per well), the medium was aspirated, and the cells were washed once with assay medium (700 μL). To determine total binding, 700 μL of binding medium and 100 μL of the radioligand dilutions were added to the wells in triplicates.
To determine non-specific binding, 600 μL of binding medium, 100 μL of the […] 3BP-3565 blocking solution and 100 μL of the radioligand dilutions were added to the wells in triplicates. The plates were incubated for 1 h, 3 h, 6 h, and 8 h at 37° C. under standard cell culture conditions (5% CO2). At the end of the incubation time, the plates were placed on ice while aspirating the radioligand solutions. Subsequently, the cells were washed with ice-cold PBS (0.5 mL, 1 mL, 1 mL). […]

[3] = Biodistribution study in healthy dog (SPECT/CT, blood pharmacokinetics, urine excretion); details: in vivo

Structure (SMILES) | affinity of binding to CAIX ([1]; SPR) | t1/2 ([1]; SPR dissociation half-life) [min] | mean dissociation half-life ([1]; SPR, 25°C) [min] | Kd ([2]; Mean pKd ± SD, CHO-huCAIX) [nM] | Kd ([2]; pKd, CHO-huCAIX, first independent experiment) [nM] | Kd ([2]; pKd, CHO-huCAIX, second independent experiment) [nM] | Kd ([2]; pKd, human CAIX expressed in CHO cells, 8 h at 37°C) [nM] | half-life [3] [min] | half-life ([3]; iv) [min]
CC(C)C[C@@H]1NC(=O)[C@H](Cc2cccc(NC(=O)CCCS(N)(=O)=O)c2)NC(=O)[C@H](CC(=O)O)NC(=O)[C@H]2CCCN2C(=O)[C@H](CCC(=O)O)NC(=O)[C@@H](NC(=O)[C@H](CCC(N)=O)NC(=O)CN2CCN(C(=O)CN3CCN(CC(=O)O)CCN(CC(=O)O)CCN(CC(=O)O)CC3)CC2)CSCc2cccc(c2)CSC[C@@H](C(N)=O)NC(=O)[C@H](CO)NC(=O)[C@H](Cc2c[nH]c3ccccc23)NC(=O)[C@H]([C@@H](C)O)NC1=O [DPI-4452, DOTA-PPAc-Gln-[Cys(3MeBn)-Glu-pro-Asp-Af3(Cpsu)-Leu-Thr-Trp-Ser-Cys]-NH2] | subnanomolar affinity | 99 | 99 | – | – | – | – | – | –
CC(C)C[C@@H]1NC(=O)[C@H](Cc2cccc(NC(=O)CCCS(N)(=O)=O)c2)NC(=O)[C@H](CC(=O)O)NC(=O)[C@H]2CCCN2C(=O)[C@H](CCC(=O)O)NC(=O)[C@@H](NC(=O)[C@H](CCC(N)=O)NC(=O)CN2CCN(C(=O)CN3CCN(CC(=O)O)CCN(CC(=O)O)CCN(CC(=O)O)CC3)CC2)CSCc2cccc(c2)CSC[C@@H](C(N)=O)NC(=O)[C@H](CO)NC(=O)[C@H](Cc2c[nH]c3ccccc23)NC(=O)[C@H]([C@@H](C)O)NC1=O [[^111In]In-DPI-4452, metal not drawn] | – | – | – | 0.316 | 0.2 | 0.501 | ≤ 1 | 55.6 | 5.43
